Reference: patent publication US10336707B2, “Heterocyclic derivatives modulating activity of certain protein kinases” (EUDENDRON S.R.L., priority 2014, dated 2019)
Where two headings read alike, the source gives them in different places.

What was measured:
[1] = system: Karpas 299 lymphoma cell line positive for the oncogenic fusion protein NPM-ALK; assay: Tritiated thymidine uptake cell proliferation assay, Karpas 299; assay type: cell-based; settings: Homo sapiens
Description: (§1) Method: Tritiated Thymidine Uptake Cell Proliferation Assay
(§2) The following procedure was used with parent untransformed BaF3 cells, BaF3 cells transformed with the oncogenic fusion protein NPM/ALK, NPM/ALK positive SUDHL-1 cells, NPM/ALK positive SUPM2, ALK-negative HL60 cells, NPM/ALK positive KARPAS-299 cells. The parent untransformed BaF3 cells or Alk-negative HL60 cells are used as controls. Cells were seeded in U-bottomed 96-well plates at 10000 cells/well in a volume of 100 μl in supplemented medium. In the case of the parent untransformed BaF3 cells, the medium was supplemented with IL-3. Serial dilutions of inhibitors were added to the appropriate wells and volumes adjusted to 200 μl. Controls were treated with the equivalent volume of vehicle, DMSO, alone. Plates were incubated at 37° C. for 72 h. 3[H]-thymidine (1 μCi/well) was added for the last 16 h of incubation. Cells were harvested on to paper filters and 3[H]-thymidine incorporation was measured using a scintillation counter (1430 MicroBeta, Wallac, Turku, Finland). The 50% inhibitory concentration (IC50) was defined as the concentration of inhibitor, expressed in nanomolar units, that gave a 50% decrease in 3[H]-thymidine uptake compared with controls.
In Table 1 are listed results for selected examples of compounds of the invention, reported as percentage of inhibition of cell proliferation at 200 nM, obtained from cellular assays in Karpas 299 lymphoma cell line positive for the oncogenic fusion protein NPM-ALK.

[2] = biological target: T1, BaF3 cell line transfected with the oncogenic fusion protein NPM-ALK and expressing the mutation L1196M (Homo sapiens, UniProt Q9UM73, L1196M, cells depend on it); assay: Tritiated thymidine uptake cell proliferation assay, BaF3 NPM-ALK L1196M; assay type: cell-based, murine; settings: for GI50: averaged IC50 values of cell proliferation inhibition, class letters, read-out: IC50 BaF3 NPM-ALK L1196M cells; for % Inhibition BaF3 NPM-ALK L1196M cells: percentage of inhibition of cell proliferation at 200 nM
T1 construct: fused on or other part: P06748 (Nucleophosmin)
Description: as §1, §2
In Table 2 are listed results for selected examples of compounds of the invention, reported as percentage of inhibition of cell proliferation at 200 nM, obtained from cellular assays in BaF3 cell line transfected with the oncogenic fusion protein NPM-ALK and expressing the mutation L1196M.
In Table 3 are listed averaged IC50 values of cell proliferation inhibition for selected examples of compounds of the present invention, obtained from cellular assays in BaF3 cell line transfected with the oncogenic fusion protein NPM-ALK and expressing the mutation L1196M. The letter “A” designates an IC50 value between 1 nM and 50 nM, the letter “B” designates an IC50 value between 50 nM and 100 nM, the letter “C” designates an IC50 value between 100 and 500 nM.

[3] = KARPAS-299, percentage of inhibition of cell proliferation at 200 nM, read-out: % Inhibition Karpas 299 cells

T1 sequence (Q9UM73 whole entry L1196M, the tested form may be a part): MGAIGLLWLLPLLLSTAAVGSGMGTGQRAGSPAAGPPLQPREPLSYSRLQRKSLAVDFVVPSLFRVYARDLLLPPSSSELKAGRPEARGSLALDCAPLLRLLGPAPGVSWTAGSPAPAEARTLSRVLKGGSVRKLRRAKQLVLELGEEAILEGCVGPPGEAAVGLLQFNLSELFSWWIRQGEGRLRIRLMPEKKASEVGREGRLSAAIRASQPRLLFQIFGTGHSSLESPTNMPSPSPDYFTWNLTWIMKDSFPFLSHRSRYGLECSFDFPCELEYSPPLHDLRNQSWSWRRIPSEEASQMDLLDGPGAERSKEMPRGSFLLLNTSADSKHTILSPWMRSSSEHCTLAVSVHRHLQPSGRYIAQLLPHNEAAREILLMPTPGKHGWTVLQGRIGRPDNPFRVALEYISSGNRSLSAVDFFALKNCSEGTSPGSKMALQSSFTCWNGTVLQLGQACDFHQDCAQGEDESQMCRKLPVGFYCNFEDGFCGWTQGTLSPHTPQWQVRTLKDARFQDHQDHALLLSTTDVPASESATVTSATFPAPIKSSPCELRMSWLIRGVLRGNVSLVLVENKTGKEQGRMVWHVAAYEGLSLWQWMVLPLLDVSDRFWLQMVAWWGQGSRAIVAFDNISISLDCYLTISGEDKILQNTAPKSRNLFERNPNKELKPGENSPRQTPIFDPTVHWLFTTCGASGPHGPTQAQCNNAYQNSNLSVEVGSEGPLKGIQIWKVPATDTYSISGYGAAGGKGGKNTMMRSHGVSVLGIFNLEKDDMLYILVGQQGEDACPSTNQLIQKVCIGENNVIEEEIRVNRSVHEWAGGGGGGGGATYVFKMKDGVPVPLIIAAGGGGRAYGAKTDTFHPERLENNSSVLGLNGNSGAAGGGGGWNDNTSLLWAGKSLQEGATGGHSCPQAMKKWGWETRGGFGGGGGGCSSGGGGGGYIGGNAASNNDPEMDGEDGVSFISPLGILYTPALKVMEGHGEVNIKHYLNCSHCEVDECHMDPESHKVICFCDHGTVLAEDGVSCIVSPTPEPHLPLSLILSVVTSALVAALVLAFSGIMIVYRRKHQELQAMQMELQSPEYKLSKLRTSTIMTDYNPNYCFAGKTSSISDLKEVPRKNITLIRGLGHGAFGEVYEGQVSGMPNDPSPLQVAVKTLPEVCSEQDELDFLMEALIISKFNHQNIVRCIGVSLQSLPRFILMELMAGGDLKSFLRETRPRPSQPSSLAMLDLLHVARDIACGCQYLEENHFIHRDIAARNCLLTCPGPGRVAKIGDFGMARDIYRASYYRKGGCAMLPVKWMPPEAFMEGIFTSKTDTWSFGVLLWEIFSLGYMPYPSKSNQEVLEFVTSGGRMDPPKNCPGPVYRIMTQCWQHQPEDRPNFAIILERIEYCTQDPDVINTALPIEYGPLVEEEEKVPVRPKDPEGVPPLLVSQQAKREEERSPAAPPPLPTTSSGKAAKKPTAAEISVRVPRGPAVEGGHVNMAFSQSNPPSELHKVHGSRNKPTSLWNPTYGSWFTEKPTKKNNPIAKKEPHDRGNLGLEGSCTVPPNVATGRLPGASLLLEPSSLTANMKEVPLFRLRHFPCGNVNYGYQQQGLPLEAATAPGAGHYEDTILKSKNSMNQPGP

Compound | GI50 [2] | % Inhibition BaF3 NPM-ALK L1196M cells [2] | inhibition at 0.2 µM [1, 3] | inhibition at 0.2 µM ([1]; KARPAS-299, read-out: % Inhibition Karpas 299 cells)
CN1CCN(c2ccc(C(=O)Nc3n[nH]c4cc(-c5cc(O)cc(F)c5)c(Cc5cc(F)cc(F)c5)cc34)c(NC3CCOCC3)c2)CC1 [Example 19, N-[5-[(3,5-difluorophenyl)methyl]-6-(3-fluoro-5-hydroxy-phenyl)-1H-indazol-3-yl]-4-(4-methylpiperazin-1-yl)-2-(tetrahydropyran-4-ylamino)benzamide] | 0.05 to 0.1 µM | 100% | 99% | 
CN1CCN(c2ccc(C(=O)Nc3n[nH]c4cc(-c5ccccc5)c(Cc5cc(F)cc(F)c5)cc34)c(NC3CCOCC3)c2)CC1 [Example 23, N-[5-[(3,5-difluorophenyl)methyl]-6-phenyl-1H-indazol-3-yl]-4-(4-methylpiperazin-1-yl)-2-(tetrahydropyran-4-ylamino)benzamide] |  | 61% | 71% | 
CN1CCN(c2ccc(C(=O)Nc3n[nH]c4cc(-c5ccc6c(c5)C(=O)NC6)c(Cc5cc(F)cc(F)c5)cc34)c(NC3CCOCC3)c2)CC1 [Example 28, N-[5-[(3,5-difluorophenyl)methyl]-6-(3-oxoisoindolin-5-yl)-1H-indazol-3-yl]-4-(4-methylpiperazin-1-yl)-2-(tetrahydropyran-4-ylamino)benzamide] |  | 60% | 55% | 
CN1CCN(c2ccc(C(=O)Nc3n[nH]c4cc(-c5ccc(O)cc5)c(Cc5cc(F)cc(F)c5)cc34)cc2)CC1 [Example 33, N-[5-[(3,5-difluorophenyl)methyl]-6-(4-hydroxyphenyl)-1H-indazol-3-yl]-4-(4-methylpiperazin-1-yl)benzamide] | 0.001 to 0.05 µM | 99% |  | 100%

Continued, in another order:

GI50 [2] | % Inhibition BaF3 NPM-ALK L1196M cells [2] | Compound | inhibition at 0.2 µM [1, 3] | inhibition at 0.2 µM ([1]; KARPAS-299, read-out: % Inhibition Karpas 299 cells)
0.001 to 0.05 µM | 99% | Cc1cc(-c2cc3[nH]nc(NC(=O)c4ccc(N5CCN(C)CC5)cc4NC4CCOCC4)c3cc2Cc2cc(F)cc(F)c2)ccc1O [Example 21, N-[5-[(3,5-difluorophenyl)methyl]-6-(4-hydroxy-3-methyl-phenyl)-1H-indazol-3-yl]-4-(4-methylpiperazin-1-yl)-2-(tetrahydropyran-4-ylamino)benzamide] | 100% | 
0.001 to 0.05 µM | 100% | CN1CCN(c2ccc(C(=O)Nc3n[nH]c4cc(-c5ccc(O)c(F)c5)c(Cc5cc(F)cc(F)c5)cc34)c(NC3CCOCC3)c2)CC1 [Example 25, N-[5-[(3,5-difluorophenyl)methyl]-6-(3-fluoro-4-hydroxy-phenyl)-1H-indazol-3-yl]-4-(4-methylpiperazin-1-yl)-2-(tetrahydropyran-4-ylamino)benzamide] | 100% | 
0.001 to 0.05 µM | 99% | CN1CCN(c2ccc(C(=O)Nc3n[nH]c4cc(-c5ccc6[nH]ncc6c5)c(Cc5cc(F)cc(F)c5)cc34)c(NC3CCOCC3)c2)CC1 [Example 26, N-[5-[(3,5-difluorophenyl)methyl]-6-(1H-indazol-5-yl)-1H-indazol-3-yl]-4-(4-methylpiperazin-1-yl)-2-(tetrahydropyran-4-ylamino)benzamide] | 99% | 
 | 62% | CN1CCN(c2ccc(C(=O)Nc3n[nH]c4cc(-c5cncnc5)c(Cc5cc(F)cc(F)c5)cc34)c(NC3CCOCC3)c2)CC1 [Example 27, N-[5-[(3,5-difluorophenyl)methyl]-6-(pyrimidin-5-yl)-1H-indazol-3-yl]-4-(4-methylpiperazin-1-yl)-2-(tetrahydropyran-4-ylamino)benzamide] | 87% | 
0.05 to 0.1 µM | 98% | CN1CCN(c2ccc(C(=O)Nc3n[nH]c4cc(-c5cnc6[nH]ccc6c5)c(Cc5cc(F)cc(F)c5)cc34)c(NC3CCOCC3)c2)CC1 [Example 29, N-[5-[(3,5-difluorophenyl)methyl]-6-(1H-pyrrolo[2,3-b]pyridin-5-yl)-1H-indazol-3-yl]-4-(4-methylpiperazin-1-yl)-2-(tetrahydropyran-4-ylamino)benzamide] | 100% | 
